Measured values reported in patent US12077503B2, “Substituted cyclic amides and their use as herbicides” (FMC CORPORATION, priority 2015, dated 2024).

Tests used:
Assay type in all cases: in vivo
Kochia (Kochia scoparia) [1] = assay: Test A preemergence
Summary of the method: (§1)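 Preemergence directed soil spray on seeded pots, or postemergence application to plants 2–10 cm, one- to two-leaf. Solvent mixture non-phytotoxic, with surfactant. Scored ~10 d later, visually, 0–100 vs untreated.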

[2] = test system: barnyardgrass (Echinochloa crus-galli); assay: Test A preemergence
Summary of the method: as §1

[3] = test system: giant foxtail (Setaria faberii); assay: Test A preemergence
Summary of the method: as §1

[4] = test system: pigweed (Amaranthus retroflexus); assay: Test A preemergence
[5] = test system: ragweed (common ragweed, Ambrosia elatior); assay: Test A preemergence
Summary of the method: as §1

[6] = test system: ryegrass, Italian (Italian ryegrass, Lolium multiflorum); assay: Test A preemergence
Summary of the method: as §1

[7] = test system: Galium (catchweed bedstraw, Galium aparine); assay: Test A postemergence
Summary of the method: as §1

Kochia (Kochia scoparia) [8] = assay: Test A postemergence
Summary of the method: as §1

[9] = test system: barnyardgrass (Echinochloa crus-galli); assay: Test A postemergence
Summary of the method: as §1

[10] = test system: blackgrass (Alopecurus myosuroides); assay: Test A postemergence
Summary of the method: as §1

corn (Zea mays) = assay: Test A postemergence
Summary of the method: as §1

[11] = test system: giant foxtail (Setaria faberii); assay: Test A postemergence
Summary of the method: as §1

[12] = test system: pigweed (Amaranthus retroflexus); assay: Test A postemergence
Summary of the method: as §1

[13] = test system: ragweed (common ragweed, Ambrosia elatior); assay: Test A postemergence
Summary of the method: as §1

[14] = test system: ryegrass, Italian (Italian ryegrass, Lolium multiflorum); assay: Test A postemergence
Summary of the method: as §1

[15] = test system: wheat (Triticum aestivum); assay: Test A postemergence
Summary of the method: as §1

[16] = test system: barnyardgrass (Echinochloa crus-galli); assay: Test B flooded paddy test; conditions: Flood, 250 g ai/ha; 0 to 100 scale where 0 is no effect and 100 is complete control; 13 to 15 d
Summary of the method: (§2)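 2-leaf plants; pots flooded 3 cm over soil; cpd added to paddy water; depth held; greenhouse 13–15 d; visual rating vs controls, 0 = no effect, 100 = complete control.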

[17] = test system: ducksalad (Heteranthera limosa); assay: Test B flooded paddy test; conditions: Flood, 250 g ai/ha; 0 to 100 scale where 0 is no effect and 100 is complete control; 13 to 15 d
Summary of the method: as §2

rice (Oryra sativa) = assay: Test B flooded paddy test; conditions: Flood, 250 g ai/ha; 0 to 100 scale where 0 is no effect and 100 is complete control; 13 to 15 d
Summary of the method: as §2

[18] = test system: sedge, umbrella (small-flower umbrella sedge, Cyperus difformis); assay: Test B flooded paddy test; conditions: Flood, 250 g ai/ha; 0 to 100 scale where 0 is no effect and 100 is complete control; 13 to 15 d
Summary of the method: as §2

[19] = 125 g ai/ha, Preemergence, visual injury after approximately 10 d, 0 to 100 scale where 0 is no effect and 100 is complete control
[20] = 500 g ai/ha, preemergence, 0 to 100 scale, 0 = no effect, 100 = complete control
[21] = 125 g ai/ha, postemergence, visual rating after approx. 10 d, 0 to 100 scale (0 no effect, 100 complete control)
[22] = 500 g ai/ha, postemergence, visual injury, 0 to 100 scale (0 no effect, 100 complete control), approx. 10 d
[23] = Preemergence, 500 g ai/ha, visual injury approx. 10 d
[24] = 125 g ai/ha, postemergence, visual injury rating on 0 to 100 scale (0 no effect, 100 complete control), approx. 10 d
[25] = Postemergence, 500 g ai/ha, 0 to 100 scale where 0 is no effect and 100 is complete control

In the case of `CCc1cc(C2CNC(=O)C2C(=O)Nc2cccc(F)c2F)cs1` (racemic) [Compound 658], the “Plant response rating, Kochia” value (Kochia (Kochia scoparia) [1]; [19]) is reported as 0, the “Plant response rating, Kochia” value (Kochia (Kochia scoparia) [1]; [20]) is reported as 30 and the “Plant response rating, Barnyardgrass” value [2, 19] is reported as 90. The “Plant response rating, Barnyardgrass” value [2, 20] was 90, the “Plant response rating, Foxtail, Giant” value [3, 19] was 90 and the “Plant response rating, Foxtail, Giant” value [3, 20] was 90. The “Plant response rating, Pigweed” value [4, 19] was 0, the “Plant response rating, Pigweed” value [4, 20] was 50 and the “Plant response rating, Ragweed” value [5, 19] was 50. For the same compound, the “Plant response rating, Ragweed” value [5, 20] was 70, the “Plant response rating, Ryegrass, Italian” value [6, 19] was 0 and the “Plant response rating, Ryegrass, Italian” value [6, 20] was 70. For the same compound, the “Plant response rating, Galium” value [7, 21] was 60, the “Plant response rating, Galium” value [7, 22] was 60 and the “Plant response rating, Kochia” value (Kochia (Kochia scoparia) [8]; [21]) was 0. The “Plant response rating, Kochia” value (Kochia (Kochia scoparia) [8]; [22]) was 30, the “Plant response rating, Barnyardgrass” value [9, 21] was 70 and the “Plant response rating, Barnyardgrass” value [9, 22] was 90. For the same compound, the “Plant response rating, Blackgrass” value [10, 21] was 40, the “Plant response rating, Blackgrass” value [10, 22] was 70 and the “Plant response rating, Corn” value (corn (Zea mays); [21]) was 0. For the same compound, the “Plant response rating, Corn” value (corn (Zea mays); [22]) was 30, the “Plant response rating, Foxtail, Giant” value [11, 21] was 0 and the “Plant response rating, Foxtail, Giant” value [11, 22] was 60. The “Plant response rating, Pigweed” value [12, 21] was 0, the “Plant response rating, Pigweed” value [12, 22] was 0 and the “Plant response rating, Ragweed” value [13, 21] was 0. For the same compound, the “Plant response rating, Ragweed” value [13, 22] was 40, the “Plant response rating, Ryegrass, Italian” value [14, 21] was 30 and the “Plant response rating, Ryegrass, Italian” value [14, 22] was 60. The “Plant response rating, Wheat” value [15, 21] was 0, the “Plant response rating, Wheat” value [15, 22] was 30 and the “Plant response rating, Barnyardgrass” value [16] was 50. For the same compound, the “Plant response rating, Ducksalad” value [17] was 100, the “Plant response rating, Rice” value (rice (Oryra sativa)) was 0 and the “Plant response rating, Sedge, Umbrella” value [18] was 0.

For `COCc1cccc(C2CNC(=O)C2C(=O)Nc2ccc(F)cc2F)c1` (stereo not drawn) [Compound 499], the “Plant response rating, Kochia” value (Kochia (Kochia scoparia) [1]; [19]) was 0, the “Kochia plant response rating (0 to 100 scale, 0 is no effect, 100 is complete control)” value (Kochia (Kochia scoparia) [1]; [23]) was 30 and the “Plant response rating, Barnyardgrass” value [2, 19] was 30. The “Barnyardgrass plant response rating (0 to 100 scale, 0 is no effect, 100 is complete control)” value [2, 23] was 90, the “Plant response rating, Foxtail, Giant” value [3, 19] was 30 and the “Foxtail, Giant plant response rating (0 to 100 scale, 0 is no effect, 100 is complete control)” value [3, 23] was 90. The “Plant response rating, Pigweed” value [4, 19] was 0, the “Pigweed plant response rating (0 to 100 scale, 0 is no effect, 100 is complete control)” value [4, 23] was 0 and the “Plant response rating, Ragweed” value [5, 19] was 0. For the same compound, the “Ragweed plant response rating (0 to 100 scale, 0 is no effect, 100 is complete control)” value [5, 23] was 0, the “Plant response rating, Ryegrass, Italian” value [6, 19] was 0 and the “Ryegrass, Italian plant response rating (0 to 100 scale, 0 is no effect, 100 is complete control)” value [6, 23] was 0. For the same compound, the “Galium plant response rating” value [7, 24] was 0, the “Plant response rating, Galium” value [7, 25] was 40 and the “Kochia plant response rating” value (Kochia (Kochia scoparia) [8]; [24]) was 0. The “Plant response rating, Kochia” value (Kochia (Kochia scoparia) [8]; [25]) was 0, the “Barnyardgrass plant response rating” value [9, 24] was 30 and the “Plant response rating, Barnyardgrass” value [9, 25] was 80. The “Blackgrass plant response rating” value [10, 24] was 0, the “Plant response rating, Blackgrass” value [10, 25] was 0 and the “Corn plant response rating” value (corn (Zea mays); [24]) was 0. The “Plant response rating, Corn” value (corn (Zea mays); [25]) was 0, the “Foxtail, Giant plant response rating” value [11, 24] was 20 and the “Plant response rating, Foxtail, Giant” value [11, 25] was 30. The “Pigweed plant response rating” value [12, 24] was 0, the “Plant response rating, Pigweed” value [12, 25] was 0 and the “Ragweed plant response rating” value [13, 24] was 0. For the same compound, the “Plant response rating, Ragweed” value [13, 25] was 0, the “Ryegrass, Italian plant response rating” value [14, 24] was 0 and the “Plant response rating, Ryegrass, Italian” value [14, 25] was 0. For the same compound, the “Wheat plant response rating” value [15, 24] was 0, the “Plant response rating, Wheat” value [15, 25] was 0 and the “Plant response rating, Barnyardgrass” value [16] was 50. For the same compound, the “Plant response rating, Ducksalad” value [17] was 80, the “Plant response rating, Rice” value (rice (Oryra sativa)) was 15 and the “Plant response rating, Sedge, Umbrella” value [18] was 0.
